{
  "source": "patent US12178846B2",
  "about": "“Methods of using gap junctions as therapeutic targets for the treatment of degenerative disorders of the retina” (The Research Foundation for The State University of New York, priority 2014, dated 2024)",
  "system": "cells in the GCL of mouse retinas",
  "experiment": "NMDA-induced excitotoxic cell death in the GCL of retina-eyecups",
  "format": "cell-based",
  "description": "All animal procedures were in compliance with the NIH Guide for the Care and Use of Laboratory Animals and approved by the Institutional Animal Care and Use Committees at SUNY College of Optometry. Experiments were performed on retinas of wild type (WT), connexin knockout (KO) mice (Cx36^−/−, Cx45^−/−, and Cx36^−/−/45^−/− dKO), and their heterozygous (Het) littermates. The methods used to impale and label neurons have been described previously (Hu et al., J Neurosci 23:[…] (2003); Völgyi et al., Journal of Comparative Neurology 512:664-687 (2009)). Briefly, flattened retina-eyecups were placed in a superfusion chamber, which was mounted on the stage of a BX51WI light microscope (Olympus) within a light-tight Faraday cage. […] The retina-eyecups were superfused with a modified, oxygenated Ames medium maintained at 35° C.\nVarious methods were employed to produce cell death. (1) Single cell apoptosis: CytC was injected into individual RGCs or Müller cells for 15 minutes after which retinas were incubated for 4 hours in oxygenated Ames medium before fixation. After streptavidin histology, apoptotic cells were detected with an anti-active caspase 3 antibody or with Terminal deoxynucleotidyl transferase dUTP nick end labeling (TUNEL) staining. (2) Excitotoxicity: To assess the contribution of GJs to cell death within populations of RGCs and amacrine cells we conducted parallel experiments in which retinas were preincubated for 20 minutes in normal Ames medium or in one containing the GJ blockers meclofenamic acid (MFA; 50 μM) or 18-beta-glycyrrhetinic acid (18Beta-GA; 25 μM). Both control and drug-treated retinas were then exposed for 1 hour to NMDA (100-300 μM) to induce excitotoxicity followed by 4 hours in the control Ames solution. (3) Retinal ischemia: Transient in vivo retinal ischemia was induced by introducing into the anterior chamber a 33-gauge needle attached to a saline-filled reservoir (0.9% sodium chloride) that was raised above the animal so as to increase intraocular pressure (IOP) to a level […]. MFA (2 μl, 500 μM) was administered intravitreally either 30 minutes before or 3 and 24 hours following the ischemic insult. […]\nApoptotic and necrotic cell death were assessed by cell counts following: (1) staining with Live/Death Viability Assay (calcein AM/ethidium homodimer (EthD) (Invitrogen); (2) TUNEL, or, (3) labeling for activated caspase 3. For population studies, dead cells were counted manually within 500×500 μm areas (5 areas per retina) from micrographs of whole-mounts using images acquired by confocal microscope. Nuclear cell counts were made per unit length (500 μm) of frozen retinal cross-sections labeled with propidium iodide (2 μg/ml).",
  "data": [
    {"molecule": "CC1(C)[C@@H](O)CC[C@]2(C)[C@H]3C(=O)C=C4[C@@H]5C[C@@](C)(C(=O)O)CC[C@]5(C)CC[C@@]4(C)[C@]3(C)CC[C@@H]12", "note": "[18Beta-GA, 18-Beta-glycyrrhetinic acid]", "values": [
      {"measurement": "cell viability, blocker alone", "setting": "control experiments, 18Beta-GA or MFA alone without NMDA, p>0.1", "result": "did not affect cell viability"},
      {"measurement": "cell death in the GCL induced by excitotoxicity", "setting": "retinas preincubated in 18Beta-GA 25 μM or MFA 50 μM, then NMDA 100-300 μM 1 h, vs NMDA alone, p<0.001", "result": "significantly reduced"}
    ]}
  ]
}
